Assay results published in patent US20010041801A1, “Water soluble fullerenes with antiviral activity” (The Regents of the University of California, priority 1994, published 2001).
Read-outs that look alike come from different tables or passages of the source.

Assays:
Solubility in water = settings: physiologic pH, generally between pH 6 and 8
[1] = test system: nevirapine (BI-RG587)-resistant HIV-1; experiment: Susceptibility of nevirapine-resistant HIV-1; type: cell-based
HIV-1 protease (HIVP) = biological target: T1, HIV-1 protease (HIVP) (Human immunodeficiency virus type 1 group M subtype B, UniProt P04585); experiment: Inhibition of HIV-1 protease, HPLC assay with kinetic analysis; type: biochemical; settings: 50 mM NaAc pH 5.5, 1.0 M NaCl; 5 min preincubation; fit to competitive inhibition; read-out: Ki
T1 construct: HIV produces a small, dimeric aspartyl protease which specifically cleaves the polyprotein precursors
Description: The ability of compound 2c to inhibit the HIVP was assayed with an HPLC method as described in R. L DesJarlais, et al., Proc. Natl. Acad. Sci U.S.A., 87:6644-6648, 1990. […] Assays were performed in buffer containing 50 mM NaAc pH 5.5, 1.0 M NaCl, 5% glycerol, 1% DMSO, and 2 mM EDTA. Inhibitor was preincubated with ≈0.05 μg of enzyme for 5 minutes at which time the reaction was initiated by addition of substrate. The reaction was quenched at <15% product formation by the addition of 15 μL of 10% TFA. The cleavage products of the substrate peptide H-Lys-Ala-Arg-Val-Tyr-p-nitro-Phe-Glu-Ala-Ile-NH2 (made by Bachem, Philadelphia, Pa.) were assayed by HPLC using a 10-40% (acetonitrile, 0.1% TFA): (water, 0.1% TFA) gradient over 30 minutes at 1 mL/minute. Product was quantitated by integration of peak areas followed by comparison to product standard curves.
Determination of kinetic constants was done with the program KinetAsyst (IntelliKinetics) by fitting of the data to the equation […]] which describes competitive inhibition.

HIV-1 RT = HIV-1 RT (Human immunodeficiency virus type 1 group M subtype B, UniProt P04585); experiment: Inhibition of recombinant p66/51 HIV-1 RT, poly(rA)n.oligo(T)12-18 template-primer; type: biochemical; settings: cell-free; AZT-5′-triphosphate used for AZT; read-out: IC50 Polymerases: HIV-1 RT
Description: The compound was also evaluated for its inhibitory effect on recombinant p66/51 HIV-1 RT by using poly(rA)n.oligo(T)12-18 as the template-primer as described in Schinazi, et al. (1992, supra). Compound 2c was active against this enzyme, with a median inhibitory concentration (1C50) of 4.6 μM. This value was of the same order of magnitude as that noted for the antiviral assays (TABLE 3). […] AZT-5′ triphosphate and phosphonoformate (PFA), used as positive controls, were effective and selective against HIV-1 RT.

[2] = Cytotoxicity in Vero cells; type: cell-based; settings: African green monkey, Vero cells; day 3
HIV-1 HI 12.2 = experiment: Susceptibility of pretherapy AZT-susceptible isolate in acutely infected PBMC; type: cell-based; settings: Human immunodeficiency virus 1, PBMC, read-out: EC50 against pretherapy isolate
From the text: (§1) The availability of AZT-resistant and -susceptible viruses allowed us to evaluate the compounds of this invention for their susceptibilities to these viruses in acutely infected PBMC in two experiments. […] In the same assay, the EC50 for TIBO [(+)-(5s)-4,5,6,7-tetrahydro-5methyl-6-(3-methyl-2-butenyl)imidazo(4,5,1-jk)(1,4)benzodiazepin-2(1 H)-thione] R82150 increased >500-fold (data not shown).

HIV-1III = experiment: Antiviral activity in chronically infected H9 cells, virus RT level; type: cell-based
Description: (§2) Compound 2c was evaluated for antiviral activity in cells acutely and chronically infected with human immunodeficiency virus (HIV). Reverse transcriptase (RT) levels associated with virus were determined with virus concentrated from cell culture supernatants by high-speed centrifugation to reduce the chances of drug carryover in the enzyme assay using the method described in R. F. Schinazi, et al., Antimicrob. Agents Chemother., 36:2423-2431, 1992.

[3] = Cytotoxicity in CEM cells; type: cell-based; settings: human, CEM cells; cell counts on day 6
[4] = Cytotoxicity in uninfected PBMC; type: cell-based, human; settings: human, uninfected PBMC; thymidine uptake day 2 and cell counts day 6
DNA polymerase α = DNA polymerase α (Homo sapiens, UniProt P09884); experiment: Inhibition of cellular DNA polymerase α, cell-free; type: biochemical; settings: AZT-5′-triphosphate used for AZT, read-out: IC50 Polymerases: DNA Polymerase α
Chain of DNA polymerase α (P09884 whole entry): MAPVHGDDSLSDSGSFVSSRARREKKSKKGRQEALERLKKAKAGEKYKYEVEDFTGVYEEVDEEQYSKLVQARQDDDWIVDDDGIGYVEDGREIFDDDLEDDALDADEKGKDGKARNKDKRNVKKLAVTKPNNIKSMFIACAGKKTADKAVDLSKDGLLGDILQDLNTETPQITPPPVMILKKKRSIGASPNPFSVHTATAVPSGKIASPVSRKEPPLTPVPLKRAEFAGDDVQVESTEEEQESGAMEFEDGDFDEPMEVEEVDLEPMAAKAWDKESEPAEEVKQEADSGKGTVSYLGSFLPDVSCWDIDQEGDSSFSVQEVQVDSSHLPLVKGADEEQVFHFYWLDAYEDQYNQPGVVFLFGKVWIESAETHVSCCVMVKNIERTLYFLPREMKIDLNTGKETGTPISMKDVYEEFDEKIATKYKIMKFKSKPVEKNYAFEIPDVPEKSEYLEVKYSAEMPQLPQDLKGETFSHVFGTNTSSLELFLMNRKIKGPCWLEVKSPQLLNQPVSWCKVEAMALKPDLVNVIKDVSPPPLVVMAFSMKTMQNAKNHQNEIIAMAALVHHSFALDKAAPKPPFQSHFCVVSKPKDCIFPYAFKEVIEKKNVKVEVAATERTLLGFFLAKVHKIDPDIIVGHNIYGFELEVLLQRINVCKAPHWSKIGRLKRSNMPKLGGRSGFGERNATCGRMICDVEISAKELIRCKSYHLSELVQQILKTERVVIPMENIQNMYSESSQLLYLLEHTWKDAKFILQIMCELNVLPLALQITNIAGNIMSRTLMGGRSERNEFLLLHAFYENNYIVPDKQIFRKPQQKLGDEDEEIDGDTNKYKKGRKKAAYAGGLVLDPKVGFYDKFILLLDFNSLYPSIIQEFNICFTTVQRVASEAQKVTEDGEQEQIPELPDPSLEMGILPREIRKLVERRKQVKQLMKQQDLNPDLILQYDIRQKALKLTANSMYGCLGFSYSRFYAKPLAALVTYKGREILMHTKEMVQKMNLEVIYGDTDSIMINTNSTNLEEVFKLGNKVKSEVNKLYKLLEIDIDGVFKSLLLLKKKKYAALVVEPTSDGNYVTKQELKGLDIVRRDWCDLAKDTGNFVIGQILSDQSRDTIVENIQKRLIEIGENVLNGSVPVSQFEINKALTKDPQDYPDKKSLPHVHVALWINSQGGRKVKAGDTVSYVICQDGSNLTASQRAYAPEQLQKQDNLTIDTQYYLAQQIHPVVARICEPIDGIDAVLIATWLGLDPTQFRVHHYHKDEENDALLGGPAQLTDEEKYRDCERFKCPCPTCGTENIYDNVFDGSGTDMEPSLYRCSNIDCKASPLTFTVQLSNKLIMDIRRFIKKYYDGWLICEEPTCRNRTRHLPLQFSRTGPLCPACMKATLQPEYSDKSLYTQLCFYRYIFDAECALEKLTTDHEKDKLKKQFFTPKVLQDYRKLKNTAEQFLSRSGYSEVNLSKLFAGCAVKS
Chain of DNA polymerase α (Q14181 whole entry partner): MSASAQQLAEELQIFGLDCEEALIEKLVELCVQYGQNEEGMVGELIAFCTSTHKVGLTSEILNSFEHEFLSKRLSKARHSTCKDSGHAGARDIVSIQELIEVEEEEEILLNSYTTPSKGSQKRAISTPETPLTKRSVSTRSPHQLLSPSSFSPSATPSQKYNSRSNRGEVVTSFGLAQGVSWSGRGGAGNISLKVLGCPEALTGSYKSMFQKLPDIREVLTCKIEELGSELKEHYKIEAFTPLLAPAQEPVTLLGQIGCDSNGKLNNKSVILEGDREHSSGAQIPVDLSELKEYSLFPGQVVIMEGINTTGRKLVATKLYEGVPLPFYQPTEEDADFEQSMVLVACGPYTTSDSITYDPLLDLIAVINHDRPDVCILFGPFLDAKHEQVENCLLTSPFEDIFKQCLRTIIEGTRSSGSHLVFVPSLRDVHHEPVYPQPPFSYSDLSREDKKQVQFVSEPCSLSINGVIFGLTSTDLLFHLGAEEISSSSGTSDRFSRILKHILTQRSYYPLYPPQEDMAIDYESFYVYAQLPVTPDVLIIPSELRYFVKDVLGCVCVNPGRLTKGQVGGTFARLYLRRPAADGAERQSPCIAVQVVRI
Chain of DNA polymerase α (P49642 whole entry partner): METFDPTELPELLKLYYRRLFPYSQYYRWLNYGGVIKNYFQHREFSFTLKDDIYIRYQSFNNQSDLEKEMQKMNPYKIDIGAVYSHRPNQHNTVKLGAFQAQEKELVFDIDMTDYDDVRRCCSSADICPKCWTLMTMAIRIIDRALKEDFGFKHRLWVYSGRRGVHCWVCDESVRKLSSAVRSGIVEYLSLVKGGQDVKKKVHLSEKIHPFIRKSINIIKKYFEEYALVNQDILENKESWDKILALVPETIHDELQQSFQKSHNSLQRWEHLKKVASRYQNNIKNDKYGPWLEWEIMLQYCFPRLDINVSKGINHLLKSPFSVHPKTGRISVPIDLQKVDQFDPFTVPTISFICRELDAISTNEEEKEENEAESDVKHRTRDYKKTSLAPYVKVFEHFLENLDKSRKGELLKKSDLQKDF
Chain of DNA polymerase α (P49643 whole entry partner): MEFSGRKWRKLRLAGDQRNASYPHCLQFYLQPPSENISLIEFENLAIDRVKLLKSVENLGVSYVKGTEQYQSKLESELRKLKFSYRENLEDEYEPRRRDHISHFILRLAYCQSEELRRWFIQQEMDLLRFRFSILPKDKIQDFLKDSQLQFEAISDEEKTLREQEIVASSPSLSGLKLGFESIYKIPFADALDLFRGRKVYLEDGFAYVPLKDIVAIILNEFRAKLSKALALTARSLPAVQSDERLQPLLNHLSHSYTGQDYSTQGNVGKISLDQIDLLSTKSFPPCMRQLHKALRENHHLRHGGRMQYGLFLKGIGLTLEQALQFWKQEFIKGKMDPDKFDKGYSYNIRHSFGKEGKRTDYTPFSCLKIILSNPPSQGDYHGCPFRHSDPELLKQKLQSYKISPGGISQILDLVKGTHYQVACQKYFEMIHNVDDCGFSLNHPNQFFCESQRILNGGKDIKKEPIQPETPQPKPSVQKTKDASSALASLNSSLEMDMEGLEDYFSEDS

HIV-2ROD = experiment: Antiviral activity in acutely infected human PBMC, virus RT level; type: cell-based; settings: acutely infected, virus RT level on day 6, read-out: Antiviral Activity (EC50) in PBMC infected with HIV-2ROD
Description: as §2

HIV-1 LAI = experiment: as above; type: cell-based; settings: acutely infected, virus RT level on day 6, read-out: Antiviral Activity (EC50) in PBMC infected with HIVLAI
Description: as §2

Cytotoxicity in H9 cells = type: cell-based, human; settings: human, H9 cells; cell counts on day 6
HIV-1G910-6 = experiment: microbe, parasite or virus in culture; type: cell-based
From the text: as §1

Vero cells = experiment: Cytotoxicity in Vero cells; type: cell-based; settings: day 3
CEM cells = experiment: Cytotoxicity in CEM cells; type: cell-based; settings: cell counts on day 6
PBMC = experiment: Cytotoxicity in uninfected PBMC; type: cell-based, human; settings: thymidine uptake day 2 and cell counts day 6

Compound: 4,4′-Bis(2-aminoethyl)diphenyl C61 [hydrochloride salt of compound 2b]
- water solubility (Solubility in water): not to be soluble

Compound: CC(C)=CCN1Cc2cccc3[nH]c(=S)n(c23)C[C@@H]1C [TIBO R82150, (+)-(5s)-4,5,6,7-tetrahydro-5methyl-6-(3-methyl-2-butenyl)imidazo(4,5,1-jk)(1,4)benzodiazepin-2(1 H)-thione, reference compound]
- increase in resistance, nevirapine-resistant vs -susceptible HIV-1 [1]: > 500 fold

Compound: NCCc1ccc(C2(c3ccc(CCN)cc3)C34c5c6c7c8c9c%10c(c%11c%12c3c3c5c5c%13c6c6c7c7c9c9c%14c%10c%10c%11c%11c%12c%12c3c3c5c5c%13c%13c6c6c7c9c7c9c%14c%10c%10c%11c%11c%12c3c3c5c5c%13c6c7c6c9c%10c%11c3c56)C824)cc1 [Compound 2b, 4,4′-Bis(2-aminoethyl)diphenyl C61]
- Ki (HIV-1 protease (HIVP)): ~2 µM

Compound: Cc1cn([C@H]2C[C@H](N=[N+]=[N-])[C@@H](CO)O2)c(=O)[nH]c1=O [AZT, 3′-Azido-3′-deoxythymidine, reference compound]
- IC50 (HIV-1 RT): 0.04 µM
- IC50 at 3 days [2]: 23 µM
- EC50 (HIV-1 HI 12.2): < 0.001 µM
- effect in chronically infected H9 cells (HIV-1III): no effect
- EC50 (HIV-1III; Human immunodeficiency virus 1, H9, 144 h, chronically infected, virus RT level after 6 days of treatment, read-out: Antiviral Activity (EC50) in H9 cells infected with HIV-1III): > 100 µM
- IC50 at 6 days [3]: 13 µM
- IC50 [4]: > 100 µM
- IC50 (DNA polymerase α): > 100 µM
- EC50 (HIV-2ROD; Human immunodeficiency virus 2, PBMC, 144 h): 0.003 µM
- EC50 (HIV-1 LAI; Human immunodeficiency virus 1, PBMC, 144 h): 0.004 µM
- IC50 at 6 days (Cytotoxicity in H9 cells): 60 µM
- EC50 (HIV-1G910-6; Human immunodeficiency virus 1, PBMC, read-out: EC50 against AZT-resistant HIV-1, acutely infected PBMC / lymphocytes): 0.18 µM
- increase of EC50, AZT-resistant vs pretherapy virus (HIV-1G910-6; virus pair HIV-1 HI 12.2 / HIV-1G910-6): more than 180 fold

Compound: O=C(O)P(=O)(O)O [PFA, phosphonoformate, reference compound]
- IC50 (HIV-1 RT): 0.32 µM
- IC50 (Vero cells): > 100 µM
- IC50 (CEM cells): > 100 µM
- IC50 (PBMC): > 640 µM
- IC50 (DNA polymerase α): > 100 µM
- EC50 (HIV-2ROD): 0.44 µM
- EC50 (HIV-1 LAI): 0.43 µM
